Assay results published in paper PMC12491701, “Discovery of an APP-selective BACE1 inhibitor for Alzheimer's disease” (Neurotherapeutics, 2025).
Where “and” joins values, the source holds several entries; their conditions need not be identical. Identical values can stand only once.

Assays:
BACE1 = BACE1 (Homo sapiens, UniProt P56817); assay: P5-P5′ BACE1 inhibition assay; format: biochemical; conditions: cell-free; read-out: BACE1 IC50 (P5-P5′ assay; BACE1-APP)
Protocol: For the P5-P5′ BACE1 inhibition assay, 4 ​μL of assay buffer was added to each well, followed by 2 ​μL of BACE1 diluted in assay buffer to 7.5 ​ng/μL. Then, 2 ​μL of inhibitor, at concentrations along an 11 ​pt. two-fold dilution series starting at 10 ​μM, or 0.5 ​μM, were added to appropriate wells and incubated for 30 ​min at room temperature. For all dilutions of inhibitor, drug stock solutions of 10 ​mM in DMSO were diluted to 50 ​μM in water; subsequent dilutions were in 0.5 ​% DMSO. Afterwards, 2 ​μL of fluorogenic P5-P5′ BACE1 substrate, diluted to 50 ​μM in assay buffer, were added to each well and the signal generated was read every 30 ​min at 25 ​°C for 2 ​h.

BACE1 cleavage of NRG1 = target: T1, BACE1 cleavage of NRG1 (Homo sapiens, UniProt P56817); assay: SEAP-NRG assay; format: cell-based
T1 construct: with or without full-length wild-type BACE1; expressed in transfected cells; host or cells: HEK293
Protocol: A cDNA construct encoding a human placental secreted alkaline phosphatase (SEAP)-NRG1 (pAPtag5-NRG1-β1) fusion protein was transfected in human embryonic kidney (HEK293) cells in a 6-well format with or without full-length wild-type BACE1 using Lipofectamine 2000 (Invitrogen) as described previously [27]. After transfection, the medium was replaced with DMEM containing the test compound at 10, 5, 1, 0.1, and 0.01 ​μM as well as 10 ​% heat-inactivated fetal bovine serum (FBS), then incubated for 24 ​h. SEAP activity was measured in the conditioned medium.

[1] = test system: CHO cells that express APP with the Swedish (Swe) K595N/M596L mutation; assay: Aβ1-42 production in CHO-7W Swe cells; format: cell-based, Chinese hamster; conditions: 1 μM, 24-h treatment, in words
Protocol: The Chinese hamster ovary (CHO) cell line overexpressing human AβPP (7W) stably transfected with human APP or overexpressing APP with the Swedish (Swe) K595 N/M596L mutation were incubated with FAH compounds diluted to 1 μM overnight. Culture Media was collected and frozen. Media was assayed using an AlphaLISA for Aβ1-42 (Perkin Elmer catalog # AL276C), sAPPα (R&D Systems catalog # AF1168 conjugated with Perkin Elmer acceptor beads catalog # 6772001 + 2B3 antibody from IBL catalog # 11088 biotinylated), and sAPPβ (Perkin Elmer AL276-acceptor + IBL catalog # 18957 biotinylated). For the assay, 2 μL of diluted or undiluted sample was added to a 384 well plate, followed by 2 μL of the respective antibody mixture. This was incubated for 1 h. Afterwards, 2 μL of donor beads was added to each well, followed by a 30-min incubation in the dark, after which the signal was read.

[2] = test system: BACE1 cleavage of rat APP; assay: Pilot PD of FAH65 vs. verubecestat in rats (CSF and medial cortex biomarkers); format: in vivo; conditions: oral, 30 mg/kg
Protocol: The hERG study was conducted at Eurofins (CEREP PanLabs).
Compound binding was calculated as a % inhibition of the binding of a radioactively labeled ligand specific for each target. While results showing an inhibition or stimulation higher than 50% are considered to
For these pilot experiments eAPP as described in Descamps et al (26) is crosslinked to a the CM5 Biacore chip. […] The raw data uncorrected for contribution of running buffer is fit to equilibrium binding data and corrected for the contribution of the running buffer to
pharmacokinetic (PK)/pharmacodynamic (PD) study to assess relative brain permeability and target engagement. Adult male and female Sprague-Dawley rats (≥ 200 g) were dosed at 30 mg/kg/day with
Animals were euthanized at 1, 2, 3, 6, 12 and 24 hours (n = 1/time point; 2 untreated controls) post-dose by pentobarbital over-anesthesia followed by collection of cerebrospinal fluid (CSF), trans-cardial blood collection for the isolation of plasma, perfusion with cold saline, and collection of brain tissue (medial cortex) for biochemical analyses (Fig. S3).

[3] = PK of FAH65E(-) in ApoE4-TR:5xFAD mice; format: in vivo, mouse; conditions: 30 mkd oral, from brain Fu
Protocol: A PK/PD study of FAH65E(-) hydrochloride was performed using ApoE4-TR:5xFAD mice that express APOE4 under the control of the endogenous mouse APOE promoter crossed to 5xFAD mice (Tg6799) which co-express five FAD mutations (APP K670 N/M671L + I716V + V717I and PS1 M146L + L286V) under the control of the neuron-specific mouse Thy-1 promoter. The resulting mice, on a 97 % C57Bl/6J and 3 % SJL background, are homozygous for APOE4 and hemizygous for the 5XFAD transgenes. Both male and female mice 6–8 months of age were used. Mice received two doses (a.m. and p.m.) of 30 mg/kg FAH65E(-) by oral gavage on day 1; on day 2, after a single dose (a.m.) mice were euthanized at 1, 2, 4 and 6 h, n = 3 per time point. FAH65 and sAPPβ levels in brain were determined in brain tissue by LC-MS (see Supplementary Methods) and ELISA , respectively.

eAPP = eAPP (Homo sapiens, UniProt P05067); assay: APP binding by surface plasmon resonance (SPR); conditions: SPR, in words
eAPP, sequence (P05067 18-701): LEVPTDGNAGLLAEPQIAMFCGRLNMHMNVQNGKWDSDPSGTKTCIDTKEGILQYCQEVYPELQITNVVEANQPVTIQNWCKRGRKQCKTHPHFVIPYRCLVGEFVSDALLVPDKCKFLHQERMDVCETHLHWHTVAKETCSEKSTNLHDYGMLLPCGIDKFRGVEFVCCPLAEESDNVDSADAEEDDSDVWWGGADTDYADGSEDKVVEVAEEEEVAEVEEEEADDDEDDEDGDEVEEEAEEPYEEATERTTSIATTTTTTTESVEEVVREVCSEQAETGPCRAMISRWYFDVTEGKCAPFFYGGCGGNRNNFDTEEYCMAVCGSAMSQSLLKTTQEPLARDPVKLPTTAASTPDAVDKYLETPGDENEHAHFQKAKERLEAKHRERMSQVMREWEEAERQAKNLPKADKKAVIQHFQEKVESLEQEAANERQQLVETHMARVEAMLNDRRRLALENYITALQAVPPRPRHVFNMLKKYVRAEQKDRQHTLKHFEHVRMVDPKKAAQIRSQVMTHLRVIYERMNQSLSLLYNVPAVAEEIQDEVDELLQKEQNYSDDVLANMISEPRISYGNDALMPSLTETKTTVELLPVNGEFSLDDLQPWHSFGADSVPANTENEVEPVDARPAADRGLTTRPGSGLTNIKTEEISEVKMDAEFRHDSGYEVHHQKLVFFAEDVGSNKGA
Protocol: The interaction of FAH3, 17 and 65 were evaluated using the SPR protocol described previously in Descamps et al., [26].
For these pilot experiments eAPP as described in Descamps et al (26) is crosslinked to a the CM5 Biacore chip. FAH3 at various concentration was used in the flow through the chip, and the plasmon resonance signal was determined using a Biacore T100. The raw data uncorrected for contribution of running buffer is fit to equilibrium binding data and corrected for the contribution of the running buffer to
For FAH17 and FAH65-APP binding was determined using SPR to determine competition with BSA that non-specifically binds to the eAPP-Biacore chip.

T1 sequence (P56817 46-501): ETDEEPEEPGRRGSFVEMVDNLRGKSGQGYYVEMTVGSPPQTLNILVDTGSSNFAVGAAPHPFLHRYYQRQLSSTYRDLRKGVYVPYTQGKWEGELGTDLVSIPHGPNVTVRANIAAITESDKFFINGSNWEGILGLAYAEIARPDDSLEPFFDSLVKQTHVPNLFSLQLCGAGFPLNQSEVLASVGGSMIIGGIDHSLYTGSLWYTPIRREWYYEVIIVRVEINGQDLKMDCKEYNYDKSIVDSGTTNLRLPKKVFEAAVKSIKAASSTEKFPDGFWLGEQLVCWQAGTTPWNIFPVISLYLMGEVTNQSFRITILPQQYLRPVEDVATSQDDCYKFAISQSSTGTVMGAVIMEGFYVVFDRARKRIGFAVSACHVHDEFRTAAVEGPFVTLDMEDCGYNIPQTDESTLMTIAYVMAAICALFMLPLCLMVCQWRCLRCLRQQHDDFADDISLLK
BACE1, sequence (P56817 46-501): as above

Cc1cc(C2(c3cccc(-c4cncnc4)c3)N=C(N)N(C)C2=O)ccc1OC(F)F (stereo not drawn) [FAH65]
IC50 (BACE1): 7 nM and 10 to 30 nM and 10 nM and ~10 nM | EC50 (BACE1 cleavage of NRG1; SEAP-NRG1, HEK293): > 10 µM | IC50 (BACE1 cleavage of NRG1; Table S1): 2000 nM | substrate selectivity IC50 NRG1/IC50 APP (BACE1 cleavage of NRG1; ratio): > 200 | Aβ1-42 [1]: significantly decreases | time post-delivery of lowest sAPPβ in brain (medial cortex) [2]: 6 h | time post-delivery of lowest sAPPβ in CSF ([2]; 1- and 2-h FAH65 samples not available): 3 h | Aβ1-40 in CSF compared with Veru-treated rats ([2]; in words): lower | sAPPα levels in brain medial cortex ([2]; in words): higher | sAPPβ in CSF compared with Veru ([2]; in words): lower | Unbound brain concentration at Cmax [3]: 9.6 nM | binding to eAPP (eAPP): relative to BSA but no KD
